Read-outs that look alike come from different tables or passages of the source.
How the values were obtained:
Type in all cases: cell-based
[1] = system: Providencia rettgeri (PRE) isolates; assay: MIC of compounds alone and combined with antibacterials, broth microdilution (CLSI)
Procedure: (§1) Method 2: MIC of Compounds Alone and Combined with Antibacterials Against Bacterial Isolates.
(§2) Compounds of the present invention were assessed against genotyped bacterial strains (Table 3, 4) alone or in combination with an antibacterial (Table 2). […] Log phase bacterial suspensions were adjusted to a final density of 5·10^5 CFU/mL in cation-adjusted Mueller-Hinton broth (ca-MHB; Becton-Dickinson and Company) and added to each well (98 μL). Microplates were incubated for 16-20 h at 35° C. in ambient air. The MIC of the compounds was defined as the lowest concentration of said compounds that prevented bacterial growth as read by visual inspection. The MIC of ATB at each compound concentration was defined as the lowest concentration of ATB that prevented bacterial growth as read by visual inspection.

[2] = system: Serratia marcescens (SMA) isolates; assay: as above; conditions: for MIC: Serratia marcescens, ATB alone, read-out: MIC
Procedure: as §1, §2

[3] = system: Citrobacter freundii (CFR) isolates; assay: as above
Procedure: as §1, §2

[4] = system: Morganella morganii (MMO) isolates; assay: as above; conditions: AF1 @ 4 μg/mL
Procedure: as §1, §2

[5] = system: Proteus mirabilis (PMI) isolates; assay: microbe, parasite or virus in culture; conditions: AF1 @ 4 μg/mL
Procedure: as §1, §2

Question: Which results are given for `C=CC1=C(C(=O)O)N2C(=O)[C@@H](NC(=O)/C(=N\O)c3csc(N)n3)[C@H]2SC1` [CDR, Cefdinir]?
Answer: MIC ATB in combination ([1]; PRE UFR99, AF1 @ 4 μg/mL): >128 µg/mL; MIC ATB in combination ([1]; strain PRE UFR236, antibacterial combined with AF1 @ 4 μg/mL): 2 µg/mL; MIC ATB in combination ([2]; SMA UFR30, AF1 @ 4 μg/mL): 1 µg/mL; MIC ATB in combination ([2]; SMA UFR134, AF1 @ 4 μg/mL): 4 µg/mL; MIC ATB in combination ([2]; SMA UFR135, AF1 @ 4 μg/mL): 16 µg/mL; MIC ATB in combination ([2]; SMA UFR136, AF1 @ 4 μg/mL): 16 µg/mL; MIC ATB in combination ([2]; SMA UFR137, AF1 @ 4 μg/mL): 1 µg/mL; MIC ATB in combination ([2]; SMA UFR138, AF1 @ 4 μg/mL): 4 µg/mL; MIC ATB in combination ([2]; SMA UFR139, AF1 @ 4 μg/mL): 4 µg/mL; MIC ATB in combination ([2]; SMA UFR141, AF1 @ 4 μg/mL): 4 µg/mL; MIC ATB in combination ([2]; SMA UFR142, AF1 @ 4 μg/mL): 8 µg/mL; MIC ATB in combination ([2]; SMA UFR143, AF1 @ 4 μg/mL): 2 µg/mL; MIC ATB in combination ([2]; SMA UFR239, AF1 @ 4 μg/mL): 16 µg/mL; MIC ([2]; strain SMA UFR238 (OXA-48)): > 256 µg/mL; MIC ([2]; strain SMA UFR30 (OXA-405)): > 256 µg/mL; MIC ([2]; strain SMA UFR136 (TEM-1, SHV-12, KPC-2)): > 256 µg/mL; MIC ([2]; strain SMA UFR141 (OXA-48)): > 256 µg/mL; MIC ([2]; strain SMA UFR142 (OXA-48)): > 256 µg/mL; MIC ([2]; strain SMA UFR143 (CTX-M-15, OXA-1, OXA-48)): > 256 µg/mL; MIC ATB in combination ([2]; strain SMA UFR238, antibacterial combined with AF1 @ 4 μg/mL): 4 µg/mL; MIC ATB in combination ([3]; CFR UFR10, AF1 @ 4 μg/mL): <=0.25 μg/mL; MIC ATB in combination ([3]; CFR UFR11, AF1 @ 4 μg/mL): 128 µg/mL; MIC ATB in combination ([3]; CFR UFR83, AF1 @ 4 μg/mL): >128 µg/mL; MIC ATB in combination ([3]; CFR UFR146, AF1 @ 4 μg/mL): 0.5 µg/mL; MIC ATB in combination ([3]; CFR UFR248, AF1 @ 4 μg/mL): 0.5 µg/mL; MIC ATB in combination ([3]; CFR UFR249, AF1 @ 4 μg/mL): <=0.25 μg/mL; MIC ATB in combination ([3]; CFR UFR250, AF1 @ 4 μg/mL): <=0.25 μg/mL; MIC ATB in combination ([3]; strain CFR UFR253, antibacterial combined with AF1 @ 4 μg/mL): <=0.25 μg/mL; MIC ATB in combination ([3]; strain CFR UFR254, antibacterial combined with AF1 @ 4 μg/mL): <=0.25 μg/mL; MIC ATB in combination ([4]; MMO 200321): 4 µg/mL; MIC ATB in combination ([4]; MMO UFR144): 4 µg/mL; MIC ATB in combination ([4]; MMO UFR240): 0.5 µg/mL; MIC ATB in combination ([4]; MMO UFR241): 4 µg/mL; MIC ATB in combination ([4]; MMO UFR242): 4 µg/mL; MIC ATB in combination ([4]; MMO UFR243): 4 µg/mL; MIC ATB in combination ([4]; MMO UFR244): 2 µg/mL; MIC ATB in combination ([4]; MMO UFR245): 4 µg/mL; MIC ATB in combination ([4]; MMO UFR246): 2 µg/mL; MIC ATB in combination ([4]; MMO UFR247): 1 µg/mL; MIC ATB in combination ([5]; PMI UFR82): 0.5 µg/mL; MIC ATB in combination ([5]; PMI UFR120): <=0.25 μg/mL; MIC ATB in combination ([5]; PMI UFR121): <=0.25 μg/mL; MIC ATB in combination ([5]; PMI UFR122): <=0.25 μg/mL; MIC ATB in combination ([5]; PMI UFR123): <=0.25 μg/mL; MIC ATB in combination ([5]; PMI UFR124): <=0.25 μg/mL; MIC ATB in combination ([5]; PMI UFR125): <=0.25 μg/mL; MIC ATB in combination ([5]; PMI UFR126): <=0.25 μg/mL; MIC ATB in combination ([5]; PMI UFR127): <=0.25 μg/mL; MIC ATB in combination ([5]; PMI UFR129): <=0.25 μg/mL; MIC ATB in combination ([5]; PMI UFR130): <=0.25 μg/mL; MIC ATB in combination ([5]; PMI UFR237): <=0.25 μg/mL
